Results reported in patent US20220298510A1, “COMPOUNDS AND METHODS FOR INHIBITING CANCERS VIA REST INHIBITION” (Icahn School of Medicine at Mount Sinai, priority 2019, published 2022).

Tests used:
ATRX IFF NB cells = test: Proliferation (Incucyte, percent confluence normalized to DMSO) of ATRX IFF NB cells; assay type: cell-based, human; details: proliferation IC50 curves, day 12 (FIG. 11a)
Source text: GAPDH used as a loading control. […] Percent confluence normalized to DMSO for each condition and plotted at day 12. Values normalized mean n±SD (n=3). Statistical significance assessed using student's unpaired t-test with each cell line compared to DMSO (* indicates p<0.05). […] Percent AV positive cells plotted, values are mean n±SD (n=3). Statistical significance assessed using student's unpaired t-test with each cell line compared to DMSO (* indicates p<0.05). (d) Tumor volume measurements of CHLA-90 cells subcutaneously injected into immunocompromised mice. Mice were treated with vehicle or UNC1999 at 300 mg/kg of body weight for 25 days, values mean n±SEM (n=9). Statistical significance assessed using student's unpaired t-test compared to vehicle (* indicates p<0.001). […]
Proliferation evaluated using the […] […] IC50 for each cell line calculated in Prism. […] Statistical significance assessed using student's unpaired t-test with each cell line compared to DMSO (* indicates p<0.05). […] Proliferation assessed in the same manner as (a). Statistical significance assessed using student's unpaired t-test with each cell line compared to DMSO (* indicates p<0.05). […] AV staining assessed in the same manner as (b). […] Proliferation assessed in the same manner as (a). […] AV staining assessed in the same manner as (b).
GAPDH used as a loading control. […] Proliferation evaluated using the Incucyte™ Life-Cell Imaging System. […]

CHLA-90 xenografts = CHLA-90 xenografts in immunocompromised mice; assay type: in vivo; details: 300 mg/kg of body weight, 25 days
Source text: GAPDH used as a loading control. […] Percent confluence normalized to DMSO for each condition and plotted at day 12. Values normalized mean n±SD (n=3). Statistical significance assessed using student's unpaired t-test with each cell line compared to DMSO (* indicates p<0.05). […] Percent AV positive cells plotted, values are mean n±SD (n=3). Statistical significance assessed using student's unpaired t-test with each cell line compared to DMSO (* indicates p<0.05). (d) Tumor volume measurements of CHLA-90 cells subcutaneously injected into immunocompromised mice. Mice were treated with vehicle or UNC1999 at 300 mg/kg of body weight for 25 days, values mean n±SEM (n=9). Statistical significance assessed using student's unpaired t-test compared to vehicle (* indicates p<0.001). (e) Tumor weight measurement from xenografts collected in (d), values mean n±SEM (n=9). Images of excised tumors underneath (* indicates p<0.001). (f) Immunoblots for H3K27me3 from acid extracted histones derived from vehicle and treated xenografts. H4 and histones used as loading controls.

| SMILES | sensitivity of ATRX IFF NB cells compared to other NB subtypes (ATRX IFF NB cells) | tumor growth and volume compared to vehicle-treated tumors (CHLA-90 xenografts) |
| --- | --- | --- |
| CCN(c1cc(-c2ccc(CN3CCOCC3)cc2)cc(C(=O)NCc2c(C)cc(C)[nH]c2=O)c1C)C1CCOCC1 [EPZ-6438, Tazemetostat] | 5-10 fold |  |
| CCCc1cc(C)[nH]c(=O)c1CNC(=O)c1cc(-c2ccc(N3CCN(C(C)C)CC3)nc2)cc2c1cnn2C(C)C [UNC1999] |  | significant reduction |
